This is an account of results in PubChem BioAssay AID248 (DTP/NCI, 2004).

Several values for one entry are separate records, joined by “and”; a condition that tells them apart may be missing. Equal entries are not always repeated. Inconclusive results and toxic doses are left out.

The test system of the assay is L1210 leukemia ip in BDF1 mice, survival T/C. The experiment in a line: NCI In Vivo Anticancer Drug Screen. Data for tumor model L1210 Leukemia (intraperitoneal) in B6D2F1 (BDF1) mice. The settings on record: endpoint: mean survival time, higher = longer survival. In a few lines: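 Ratio derived from survival: compound-dosed mice over vehicle-dosed mice, all bearing a transplantable tumor.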

[1] abbreviates: dose: 100.0 mg/kg/injection, schedule: Q04DX003 (ip), vehicle: saline with Tween-80.
The mark [2] stands for this setting: dose: 25.0 mg/kg/injection, schedule: Q04DX003 (ip), vehicle: saline with Tween-80.
The mark [3] stands for this setting: dose: 100.0 mg/kg/injection, schedule: Q01DX009 (ip), vehicle: saline with Tween-80.
Where [4] appears, read: dose: 200.0 mg/kg/injection, schedule: Q01DX009 (ip), vehicle: saline with Tween-80.
Where [5] appears, read: dose: 400.0 mg/kg/injection, schedule: Q01DX009 (ip), vehicle: saline with Tween-80.

On to `COC1C(C)(C)C2(C)CC[N+]1(Cc1ccccc1)C2` (centres undefined), for which the T/C (dose: 25.0 mg/kg/injection, schedule: Q04DX002 (ip), vehicle: saline) was 106 % of control; the T/C (dose: 50.0 mg/kg/injection, schedule: Q04DX002 (ip), vehicle: saline) was 97 % of control; the T/C (dose: 100.0 mg/kg/injection, schedule: Q04DX002 (ip), vehicle: saline) is 116 % of control.
As for `c1nc(SCSc2ncnc3nc[nH]c23)c2[nH]cnc2n1`, the T/C under setting [1] was 97 % of control; the T/C (dose: 200.0 mg/kg/injection, schedule: Q04DX003 (ip), vehicle: saline with Tween-80) was 90 % of control; the T/C (dose: 400.0 mg/kg/injection, schedule: Q04DX003 (ip), vehicle: saline with Tween-80) was 90 % of control.
Turning to `OCC1OC(n2cnc3nccnc32)C(O)C1O` (centres undefined), the T/C reads like this: (dose: 100.0 mg/kg/injection, schedule: Q01DX005 (ip), vehicle: saline) 98 % of control; (dose: 200.0 mg/kg/injection, schedule: Q01DX005 (ip), vehicle: saline) 110 % of control.
Take `O=Cc1c(Cl)n(C(=O)c2ccccc2)c2ccccc12`: the T/C is 90 % of control (dose: 50.0 mg/kg/injection, schedule: Q04DX002 (ip), vehicle: Klucel (hydroxypropylcellulose) (HPC)); 87 % of control (dose: 100.0 mg/kg/injection, schedule: Q04DX002 (ip), vehicle: Klucel (hydroxypropylcellulose) (HPC)); 97 % of control (dose: 200.0 mg/kg/injection, schedule: Q04DX002 (ip), vehicle: Klucel (hydroxypropylcellulose) (HPC)).
In the case of `CC12CCC3(CC1CCC(OC(=O)c1ccccc1)C2)OCCO3` (centres undefined), the T/C reads like this: (dose: 100.0 mg/kg/injection, schedule: Q01DX009 (ip), vehicle: other) 93 % of control; (dose: 100.0 mg/kg/injection, schedule: Q04DX003 (ip), vehicle: other) 108 % of control; (dose: 200.0 mg/kg/injection, schedule: Q01DX009 (ip), vehicle: other) 95 % of control; (dose: 200.0 mg/kg/injection, schedule: Q04DX003 (ip), vehicle: other) 106 % of control; (dose: 400.0 mg/kg/injection, schedule: Q01DX009 (ip), vehicle: other) 90 % of control; (dose: 400.0 mg/kg/injection, schedule: Q04DX003 (ip), vehicle: other) 95 % of control.
As to `O=C(O)CSc1c([N+](=O)[O-])cc(C(F)(F)F)cc1[N+](=O)[O-]`, the T/C by setting is: (dose: 50.0 mg/kg/injection, schedule: Q01DX009 (ip), vehicle: Klucel (hydroxypropylcellulose) (HPC)) 101 % of control; (dose: 100.0 mg/kg/injection, schedule: Q01DX009 (ip), vehicle: Klucel (hydroxypropylcellulose) (HPC)) 101 % of control; (dose: 200.0 mg/kg/injection, schedule: Q01DX009 (ip), vehicle: Klucel (hydroxypropylcellulose) (HPC)) 95 % of control.
With `Cc1ccc(C(=O)Nc2ncn(C3CC(O)C(CO)O3)c(=O)n2)cc1` (centres undefined), the T/C runs as follows: (dose: 6.25 mg/kg/injection, schedule: Q04DX003 (ip), vehicle: saline with Tween-80) 114 % of control; (dose: 12.5 mg/kg/injection, schedule: Q01DX003 (ip), vehicle: saline with Tween-80) 245 % of control; (dose: 12.5 mg/kg/injection, schedule: Q01DX005 (ip), vehicle: saline) 187 % of control; (dose: 12.5 mg/kg/injection, schedule: Q04DX003 (ip), vehicle: saline with Tween-80) 172 % of control; (dose: 25.0 mg/kg/injection, schedule: Q01DX003 (ip), vehicle: saline with Tween-80) 152 % of control; under setting [2], 156 % of control and 185 % of control. Moreover, the T/C runs as follows: (dose: 50.0 mg/kg/injection, schedule: Q01DX003 (ip), vehicle: saline with Tween-80) 111 % of control; (dose: 50.0 mg/kg/injection, schedule: Q01DX005 (ip), vehicle: saline) 90 % of control.
Take `Oc1ccc2[nH]c3c(c2c1)C[P+](Cc1cccc2ccccc12)(c1ccccc1)CC3` (centres undefined): the T/C by setting is: (dose: 100.0 mg/kg/injection, schedule: Q01DX001 (ip), vehicle: Klucel (hydroxypropylcellulose) (HPC)) 98 % of control; (dose: 200.0 mg/kg/injection, schedule: Q01DX001 (ip), vehicle: Klucel (hydroxypropylcellulose) (HPC)) 93 % of control; (dose: 400.0 mg/kg/injection, schedule: Q01DX001 (ip), vehicle: Klucel (hydroxypropylcellulose) (HPC)) 96 % of control.
As for `COc1cc2c(c(Cl)c1N)-c1ccccc1C2`, the T/C is, setting by setting: (dose: 177.0 mg/kg/injection, schedule: Q01DX001 (ip), vehicle: carboxymethylcellulose (CMC)) 104 % of control; (dose: 266.0 mg/kg/injection, schedule: Q01DX001 (ip), vehicle: carboxymethylcellulose (CMC)) 98 % of control.
In the case of `CCN(CC)c1ccc(C(=O)OCCNC2CCCCC2)cc1`, the T/C is, setting by setting: (dose: 75.0 mg/kg/injection, schedule: Q01DX001 (ip), vehicle: carboxymethylcellulose (CMC)) 94 % of control; (dose: 150.0 mg/kg/injection, schedule: Q01DX001 (ip), vehicle: carboxymethylcellulose (CMC)) 98 % of control.
Take `Cc1cc(N(CCCOS(C)(=O)=O)CCCOS(C)(=O)=O)ccc1C=Nc1ccc(-c2csc(COc3ccc(Br)cc3Br)n2)cc1`: the T/C under setting [3] is 88 % of control, the T/C under setting [4] is 91 % of control and the T/C under setting [5] is 96 % of control.
With `CC(C)(C)c1ccc(C(c2ccc(C(C)(C)C)cc2)C(Cl)Cl)cc1`, the T/C reads like this: (dose: 100.0 mg/kg/injection, schedule: Q04DX003 (ip), vehicle: Klucel (hydroxypropylcellulose) (HPC)) 113 % of control; (dose: 200.0 mg/kg/injection, schedule: Q04DX003 (ip), vehicle: Klucel (hydroxypropylcellulose) (HPC)) 96 % of control; (dose: 400.0 mg/kg/injection, schedule: Q04DX003 (ip), vehicle: Klucel (hydroxypropylcellulose) (HPC)) 97 % of control.
In the case of `CC1=CCCCC1O` (centres undefined), the T/C (dose: 100.0 mg/kg/injection, schedule: Q04DX002 (ip), vehicle: saline with Tween-80) was 93 % of control; the T/C (dose: 200.0 mg/kg/injection, schedule: Q04DX002 (ip), vehicle: saline with Tween-80) is 96 % of control; the T/C (dose: 400.0 mg/kg/injection, schedule: Q04DX002 (ip), vehicle: saline with Tween-80) was 93 % of control.
On to `Cc1ccc(N=Nc2c(C)nn(C(N)=S)c2C)cc1`, for which the T/C was 100 % of control (dose: 75.0 mg/kg/injection, schedule: Q01DX001 (ip), vehicle: other) and 103 % of control (dose: 150.0 mg/kg/injection, schedule: Q01DX001 (ip), vehicle: other).
As for `Cc1cc2c3ccc(C)[n+](C)c3ccc2n1C`, the T/C was 109 % of control (dose: 1.25 mg/kg/injection, schedule: Q01DX009 (ip), vehicle: saline); 115 % of control (dose: 2.5 mg/kg/injection, schedule: Q01DX009 (ip), vehicle: saline); 112 % of control (dose: 2.5 mg/kg/injection, schedule: Q04DX003 (ip), vehicle: saline); 115 % of control (dose: 5.0 mg/kg/injection, schedule: Q01DX009 (ip), vehicle: saline); 110 % of control (dose: 5.0 mg/kg/injection, schedule: Q04DX003 (ip), vehicle: saline); 106 % of control (dose: 9.5 mg/kg/injection, schedule: Q01DX001 (ip), vehicle: saline). Also, the T/C was 112 % of control (dose: 10.0 mg/kg/injection, schedule: Q04DX003 (ip), vehicle: saline) and 103 % of control (dose: 20.0 mg/kg/injection, schedule: Q04DX003 (ip), vehicle: saline).
Regarding `CCC(=O)c1ccccc1NC(C)=O`, the T/C was 97 % of control under setting [3], 96 % of control under setting [4] and 101 % of control under setting [5].
With `O=C(O)C=C(CBr)CBr`, the T/C (dose: 10.0 mg/kg/injection, schedule: Q01DX001 (ip), vehicle: saline) is 93 % of control; the T/C (dose: 20.0 mg/kg/injection, schedule: Q01DX001 (ip), vehicle: saline) is 94 % of control; the T/C (dose: 40.0 mg/kg/injection, schedule: Q01DX001 (ip), vehicle: saline) is 109 % of control.
As for `CC(=O)Nc1ccc(OC(=O)c2cccc([N+](=O)[O-])c2)cc1`, the T/C runs as follows: (dose: 100.0 mg/kg/injection, schedule: Q01DX001 (ip), vehicle: saline) 107 % of control; (dose: 200.0 mg/kg/injection, schedule: Q01DX001 (ip), vehicle: saline) 101 % of control; (dose: 400.0 mg/kg/injection, schedule: Q01DX001 (ip), vehicle: saline) 104 % of control.
As to `CS(=O)(=O)c1ccc(Sc2ccc(S(C)(=O)=O)cc2)cc1`, the T/C reads like this: (dose: 12.5 mg/kg/injection, schedule: Q01DX009 (ip), vehicle: saline with Tween-80) 105 % of control; (dose: 25.0 mg/kg/injection, schedule: Q01DX009 (ip), vehicle: saline with Tween-80) 96 % of control; under setting [2], 98 % of control; (dose: 50.0 mg/kg/injection, schedule: Q01DX009 (ip), vehicle: saline with Tween-80) 92 % of control; (dose: 50.0 mg/kg/injection, schedule: Q04DX003 (ip), vehicle: saline with Tween-80) 94 % of control; under setting [1], 93 % of control.
